PubChem BioAssay (NCI)
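Method: 48-hour compound exposure of cells in 96-well plates, five concentrations, linear interpolation of endpoints. GI50 is the concentration that inhibits growth by half. TGI marks complete inhibition of growth.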

Legend:
Assay in all cases: DTP human tumour cell line panel, 48 h
HCT-15 colon = tested on: HCT-15 colon
SW-620 colon = tested on: SW-620 colon
786-0 renal = tested on: 786-0 renal
DU-145 prostate = tested on: DU-145 prostate
MALME-3M melanoma = tested on: MALME-3M melanoma
NCI/ADR-RES ovarian = tested on: NCI/ADR-RES ovarian
M14 melanoma = tested on: M14 melanoma
MDA-MB-435 = tested on: MDA-MB-435
SK-MEL-5 melanoma = tested on: SK-MEL-5 melanoma
UACC-257 melanoma = tested on: UACC-257 melanoma
U251 CNS = tested on: U251 CNS
CCRF-CEM leukemia = tested on: CCRF-CEM leukemia
ACHN renal = tested on: ACHN renal
KM12 colon = tested on: KM12 colon
OVCAR-5 ovarian = tested on: OVCAR-5 ovarian
SF-539 CNS = tested on: SF-539 CNS
NCI-H522 lung = tested on: NCI-H522 lung
SF-295 CNS = tested on: SF-295 CNS
OVCAR-4 ovarian = tested on: OVCAR-4 ovarian
HOP-62 NSCLC = tested on: HOP-62 NSCLC
SK-OV-3 ovarian = tested on: SK-OV-3 ovarian
NCI-H23 lung = tested on: NCI-H23 lung
K-562 leukemia = tested on: K-562 leukemia
SNB-75 CNS = tested on: SNB-75 CNS
COLO 205 colon = tested on: COLO 205 colon
HT29 colon = tested on: HT29 colon
BT-549 breast = tested on: BT-549 breast
HCC-2998 colon = tested on: HCC-2998 colon
SK-MEL-2 melanoma = tested on: SK-MEL-2 melanoma
A549 NSCLC = tested on: A549 NSCLC
RPMI-8226 leukemia = tested on: RPMI-8226 leukemia
UO-31 renal = tested on: UO-31 renal
RXF 393 renal = tested on: RXF 393 renal
SF-268 CNS = tested on: SF-268 CNS
IGROV1 ovarian = tested on: IGROV1 ovarian
HOP-92 NSCLC = tested on: HOP-92 NSCLC
NCI-H226 lung = tested on: NCI-H226 lung
HS 578T breast = tested on: HS 578T breast
CAKI-1 renal = tested on: CAKI-1 renal
OVCAR-3 ovarian = tested on: OVCAR-3 ovarian
TK-10 renal = tested on: TK-10 renal
SNB-19 CNS = tested on: SNB-19 CNS
SK-MEL-28 melanoma = tested on: SK-MEL-28 melanoma
HL-60(TB) leukemia = tested on: HL-60(TB) leukemia
PC-3 prostate = tested on: PC-3 prostate
T-47D breast = tested on: T-47D breast
UACC-62 melanoma = tested on: UACC-62 melanoma
SR leukemia = tested on: SR leukemia
MOLT-4 leukemia = tested on: MOLT-4 leukemia
MCF7 breast = tested on: MCF7 breast
NCI-H460 lung = tested on: NCI-H460 lung
SN12C renal = tested on: SN12C renal
EKVX NSCLC = tested on: EKVX NSCLC
LOX IMVI melanoma = tested on: LOX IMVI melanoma
OVCAR-8 ovarian = tested on: OVCAR-8 ovarian
A498 renal = tested on: A498 renal
HCT-116 colon = tested on: HCT-116 colon
MDA-MB-231 breast = tested on: MDA-MB-231 breast

Structure (SMILES): CN1CC[C@]2(c3cccc(O)c3)CC(=O)/C(=C/c3ccccc3)[C@H]1C2
- GI50 (HCT-15 colon): 2500 nM
- TGI (HCT-15 colon): 10.6 µM
- TGI (SW-620 colon): 11.9 µM
- GI50 (786-0 renal): 3.21 µM
- TGI (786-0 renal): 10.1 µM
- GI50 (DU-145 prostate): 3.14 µM
- TGI (DU-145 prostate): 11.3 µM
- TGI (MALME-3M melanoma): 9.51 µM
- GI50 (NCI/ADR-RES ovarian): 2420 nM
- TGI (NCI/ADR-RES ovarian): 7.35 µM
- TGI (M14 melanoma): 9.46 µM
- GI50 (MDA-MB-435): 2080 nM
- TGI (MDA-MB-435): 8.96 µM
- TGI (SK-MEL-5 melanoma): 9.35 µM
- GI50 (UACC-257 melanoma): 2600 nM
- TGI (UACC-257 melanoma): 9.72 µM
- TGI (U251 CNS): 9.92 µM
- GI50 (CCRF-CEM leukemia): 2530 nM
- TGI (CCRF-CEM leukemia): 9.36 µM
- TGI (ACHN renal): 7.03 µM
- TGI (KM12 colon): 13.9 µM
- GI50 (OVCAR-5 ovarian): 4.34 µM
- TGI (OVCAR-5 ovarian): 16.1 µM
- TGI (SF-539 CNS): 5.2 µM
- TGI (NCI-H522 lung): 7.76 µM
- GI50 (SF-295 CNS): 4.5 µM
- TGI (SF-295 CNS): 17 µM
- TGI (OVCAR-4 ovarian): 11 µM
- GI50 (HOP-62 NSCLC): 3.21 µM
- TGI (HOP-62 NSCLC): 10.8 µM
- GI50 (SK-OV-3 ovarian): 2810 nM
- TGI (SK-OV-3 ovarian): 8.73 µM
- GI50 (NCI-H23 lung): 2870 nM
- TGI (NCI-H23 lung): 10.8 µM
- TGI (K-562 leukemia): 17.7 µM
- GI50 (SNB-75 CNS): 3.89 µM
- TGI (SNB-75 CNS): 14.4 µM
- GI50 (COLO 205 colon): 3.06 µM
- TGI (COLO 205 colon): 8.43 µM
- GI50 (HT29 colon): 3.59 µM
- TGI (HT29 colon): 12.4 µM
- GI50 (BT-549 breast): 3.64 µM
- TGI (BT-549 breast): 14.5 µM
- GI50 (HCC-2998 colon): 3.11 µM
- TGI (HCC-2998 colon): 9.99 µM
- GI50 (SK-MEL-2 melanoma): 3.28 µM
- TGI (SK-MEL-2 melanoma): 12.6 µM
- TGI (A549 NSCLC): 11.1 µM
- GI50 (RPMI-8226 leukemia): 2100 nM
- TGI (RPMI-8226 leukemia): > 22 µM
- GI50 (UO-31 renal): 2000 nM
- TGI (UO-31 renal): 9.83 µM
- GI50 (RXF 393 renal): 2500 nM
- TGI (RXF 393 renal): 8.03 µM
- GI50 (SF-268 CNS): 6.04 µM
- TGI (SF-268 CNS): 18.2 µM
- GI50 (IGROV1 ovarian): 3.38 µM
- TGI (IGROV1 ovarian): 12.6 µM
- TGI (HOP-92 NSCLC): 7.92 µM
- GI50 (NCI-H226 lung): 9.03 µM
- TGI (NCI-H226 lung): 28.6 µM
- TGI (HS 578T breast): 12.1 µM
- TGI (CAKI-1 renal): 9.93 µM
- GI50 (OVCAR-3 ovarian): 2640 nM
- TGI (OVCAR-3 ovarian): 6.95 µM
- GI50 (TK-10 renal): 6.32 µM
- TGI (TK-10 renal): 13.2 µM
- GI50 (SNB-19 CNS): 4.75 µM
- TGI (SNB-19 CNS): 17.4 µM
- TGI (SK-MEL-28 melanoma): 12.8 µM
- TGI (HL-60(TB) leukemia): 5.45 µM
- GI50 (PC-3 prostate): 3.22 µM
- TGI (PC-3 prostate): 12.9 µM
- GI50 (T-47D breast): 2570 nM
- TGI (T-47D breast): 7.44 µM
- GI50 (UACC-62 melanoma): 3.06 µM
- TGI (UACC-62 melanoma): 12.7 µM
- GI50 (SR leukemia): 1350 nM
- TGI (SR leukemia): 5.9 µM
- TGI (MOLT-4 leukemia): 6.96 µM
- TGI (MCF7 breast): 10.4 µM
- TGI (NCI-H460 lung): 6.32 µM
- TGI (SN12C renal): 11.4 µM
- GI50 (EKVX NSCLC): 3.57 µM
- TGI (EKVX NSCLC): 13.9 µM
- TGI (LOX IMVI melanoma): 4.1 µM
- TGI (OVCAR-8 ovarian): 9.46 µM
- TGI (A498 renal): 21.1 µM
- TGI (HCT-116 colon): 7.29 µM
- TGI (MDA-MB-231 breast): 8.08 µM
